From PubChem BioAssay (NCI) come the findings set out here.

Among the test systems are CCRF-CEM leukemia; DLD-1 colon; DMS 114 small cell lung; DMS 273 small cell lung; HCC-2998 colon; HOP-18 NSCLC; HOP-92 NSCLC; KM20L2 colon; LXFL 529 NSCLC; M19-MEL melanoma; NCI-H226 lung; SNB-19 CNS; SNB-78 CNS; UO-31 renal; XF 498 CNS; RXF-631 renal; T-47D breast.
Common to all, as to assay: growth of human tumour cells (NCI), 48 h

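Five compound concentrations were applied to cells in 96-well plates for 48 hours; endpoints were derived by simple linear interpolation of the resulting dose-response curve. Definition used: TGI = concentration required for complete inhibition of growth.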 Bounds are passed on as bounds.

On to `COc1cc2c(cc1OC)[C@H]1C(COC(=O)c3ccccc3)CSC(=Nc3ccccc3)N1CC2` (some centres undefined), for which the TGI in the experiment on CCRF-CEM leukemia, in the experiment with DLD-1 colon, with DMS 114 small cell lung, with DMS 273 small cell lung, in the experiment on HCC-2998 colon and with HOP-18 NSCLC was greater than 100 µM throughout. Besides, the TGI with HOP-92 NSCLC, with KM20L2 colon, in the experiment with LXFL 529 NSCLC, in the experiment with M19-MEL melanoma, with NCI-H226 lung and in the experiment with SNB-19 CNS was greater than 100 µM each time. Moreover, the TGI in the experiment on SNB-78 CNS, in the experiment with UO-31 renal and with XF 498 CNS was greater than 100 µM in each case.

For the compound `CC(O)c1ccc[n+](Cc2ccccc2)c1` (centres undefined), the TGI in the experiment with CCRF-CEM leukemia, with DLD-1 colon, in the experiment with DMS 114 small cell lung, in the experiment with DMS 273 small cell lung, in the experiment on HCC-2998 colon and in the experiment with HOP-18 NSCLC was greater than 400 µM throughout. The TGI in the experiment on HOP-92 NSCLC, in the experiment with KM20L2 colon, in the experiment with LXFL 529 NSCLC, in the experiment on M19-MEL melanoma, in the experiment with NCI-H226 lung and in the experiment with RXF-631 renal was greater than 400 µM throughout. The TGI in the experiment with SNB-19 CNS and with XF 498 CNS was greater than 400 µM throughout.

`CCCCCCCCCCCCCCCCOCC(CP(=O)([O-])OCC[n+]1ccccc1)OC` (centres undefined): the TGI with CCRF-CEM leukemia stood at 25.6 µM; with DLD-1 colon, 11.1 µM; in the experiment on DMS 114 small cell lung, 26.5 µM; in the experiment with DMS 273 small cell lung it was 5.63 µM; in the experiment on HCC-2998 colon it was 7.4 µM; in the experiment with HOP-92 NSCLC, 5.97 µM. The TGI with LXFL 529 NSCLC stood at 23.5 µM; in the experiment with M19-MEL melanoma it was 25.2 µM; with NCI-H226 lung, 15.5 µM; in the experiment on RXF-631 renal, 28.9 µM; with SNB-19 CNS, 21.6 µM; in the experiment on SNB-78 CNS, 31.1 µM. For the same compound, the TGI in the experiment on UO-31 renal amounted to 21.2 µM; in the experiment with XF 498 CNS, 24.7 µM.

For `N#CCCN(c1ccc(C=Nc2ccccc2Cl)cc1)S(=O)(=O)c1ccccc1`, the TGI in the experiment on DLD-1 colon, in the experiment with DMS 114 small cell lung, with DMS 273 small cell lung, with HCC-2998 colon, with HOP-18 NSCLC and in the experiment with HOP-92 NSCLC was greater than 100 µM throughout. The TGI in the experiment on KM20L2 colon, in the experiment on LXFL 529 NSCLC, with M19-MEL melanoma, in the experiment on NCI-H226 lung, with RXF-631 renal and with SNB-19 CNS was greater than 100 µM throughout. Besides, the TGI with SNB-78 CNS, with UO-31 renal and with XF 498 CNS was greater than 100 µM throughout.

Turning to `CC1=NN(C(=O)CC(=O)NC(=O)CC(=O)Nc2ccccc2F)C(=O)C1N=Nc1ccc([N+](=O)[O-])cc1` (centres undefined), the TGI is 63.6 µM in the experiment with CCRF-CEM leukemia; greater than 100 µM in the experiment on DLD-1 colon; 41 µM with DMS 114 small cell lung; greater than 100 µM in the experiment with DMS 273 small cell lung; greater than 100 µM with HCC-2998 colon; greater than 100 µM in the experiment on HOP-18 NSCLC. Moreover, the TGI was greater than 100 µM in the experiment on HOP-92 NSCLC; greater than 100 µM in the experiment on KM20L2 colon; greater than 100 µM in the experiment with LXFL 529 NSCLC; 92.8 µM in the experiment with M19-MEL melanoma; greater than 100 µM in the experiment on NCI-H226 lung; greater than 100 µM in the experiment with RXF-631 renal. Further, the TGI was greater than 100 µM with SNB-19 CNS, greater than 100 µM with SNB-78 CNS, 84.2 µM with UO-31 renal and 70.9 µM with XF 498 CNS.

For `Cn1ccc2c(C(=O)c3ccccc3)cccc2c1=O`, the TGI with CCRF-CEM leukemia, in the experiment with DLD-1 colon, in the experiment on DMS 114 small cell lung, with DMS 273 small cell lung, in the experiment with HCC-2998 colon and in the experiment on HOP-92 NSCLC was greater than 100 µM throughout. For the same compound, the TGI in the experiment on LXFL 529 NSCLC, in the experiment on M19-MEL melanoma and in the experiment on XF 498 CNS was greater than 100 µM each time.

Consider `O=C(O)CCc1cccc2c1oc1c(CCC(=O)O)cccc12`, for which the TGI in the experiment with CCRF-CEM leukemia, in the experiment with DLD-1 colon, in the experiment on DMS 114 small cell lung, in the experiment on DMS 273 small cell lung, in the experiment on HCC-2998 colon and with HOP-18 NSCLC was greater than 100 µM throughout. For the same compound, the TGI in the experiment with HOP-92 NSCLC, in the experiment with KM20L2 colon, with LXFL 529 NSCLC, in the experiment with M19-MEL melanoma, in the experiment on NCI-H226 lung and in the experiment on SNB-19 CNS was greater than 100 µM throughout. For the same compound, the TGI in the experiment with SNB-78 CNS, in the experiment with UO-31 renal and with XF 498 CNS was greater than 100 µM throughout.

Turning to `CC(=O)C(CN(Cc1ccccc1)Cc1ccccc1)C(c1ccccc1)c1c(O)c2ccccc2oc1=O` (centres undefined), the TGI in the experiment on CCRF-CEM leukemia, in the experiment with DLD-1 colon, in the experiment on HOP-92 NSCLC, with KM20L2 colon, with LXFL 529 NSCLC and with M19-MEL melanoma was greater than 100 µM in each case. The TGI in the experiment with NCI-H226 lung, in the experiment with RXF-631 renal, with SNB-19 CNS, with SNB-78 CNS, in the experiment with UO-31 renal and in the experiment on XF 498 CNS was greater than 100 µM each time.

In the case of `COC(=O)NC12CC3CC(CC(F)(C3)C1)C2`, the TGI in the experiment with CCRF-CEM leukemia, in the experiment with DLD-1 colon, in the experiment with DMS 273 small cell lung, in the experiment on HCC-2998 colon, in the experiment with HOP-92 NSCLC and in the experiment on KM20L2 colon was greater than 100 µM in each case. Besides, the TGI in the experiment on M19-MEL melanoma, in the experiment on RXF-631 renal, in the experiment on SNB-19 CNS, with SNB-78 CNS, with UO-31 renal and in the experiment with XF 498 CNS was greater than 100 µM in each case.

As for `CC(C)C(Sc1nc(-c2ccccc2)c(-c2ccccc2)[nH]1)C(=O)NN` (centres undefined), the TGI in the experiment with CCRF-CEM leukemia, in the experiment with DLD-1 colon, in the experiment with DMS 114 small cell lung, in the experiment on DMS 273 small cell lung, in the experiment with HOP-92 NSCLC and in the experiment with KM20L2 colon was greater than 100 µM in each case. For the same compound, the TGI with LXFL 529 NSCLC, with M19-MEL melanoma, in the experiment with NCI-H226 lung, in the experiment on SNB-19 CNS, in the experiment on SNB-78 CNS and in the experiment on UO-31 renal was greater than 100 µM throughout. Moreover, the TGI in the experiment on XF 498 CNS was greater than 100 µM.

Regarding `CN(C)CC1CCCC(CN(C)C)C1=NOC(=O)c1ccccc1` (centres undefined), the TGI in the experiment with CCRF-CEM leukemia, in the experiment with DLD-1 colon, in the experiment with DMS 114 small cell lung, in the experiment on DMS 273 small cell lung, in the experiment with HCC-2998 colon and in the experiment with HOP-18 NSCLC was greater than 100 µM each time. For the same compound, the TGI in the experiment on HOP-92 NSCLC, in the experiment on KM20L2 colon, in the experiment with LXFL 529 NSCLC, with M19-MEL melanoma, in the experiment with NCI-H226 lung and in the experiment on SNB-19 CNS was greater than 100 µM in each case. In addition, the TGI in the experiment on SNB-78 CNS, in the experiment on UO-31 renal and in the experiment on XF 498 CNS was greater than 100 µM in each case.

In the case of `COc1ccc(N2C(=O)C3c4[nH]c5ccccc5c4C4CC(C)CC(C)C4C3C2=O)cc1` (centres undefined), the TGI in the experiment on CCRF-CEM leukemia, with DLD-1 colon, with DMS 114 small cell lung, with DMS 273 small cell lung, with HCC-2998 colon and in the experiment with HOP-18 NSCLC was greater than 100 µM in each case. In addition, the TGI in the experiment with HOP-92 NSCLC, in the experiment with KM20L2 colon, in the experiment on LXFL 529 NSCLC, in the experiment with M19-MEL melanoma, in the experiment with NCI-H226 lung and in the experiment with SNB-19 CNS was greater than 100 µM each time. The TGI in the experiment on SNB-78 CNS, in the experiment with UO-31 renal and in the experiment on XF 498 CNS was greater than 100 µM throughout.

For `COc1ccc2c(c1)Oc1cc(O)ccc1[C@@H]2c1ccccc1C(=O)NC(C)c1ccccc1` (some centres undefined), the TGI in the experiment on CCRF-CEM leukemia was 98.7 µM; with DLD-1 colon it was 39.4 µM; with DMS 114 small cell lung, 32.3 µM; with DMS 273 small cell lung, 28.2 µM; in the experiment with HCC-2998 colon, 26.6 µM; in the experiment on KM20L2 colon, 31.4 µM. The TGI with LXFL 529 NSCLC came out at 30.1 µM; in the experiment with M19-MEL melanoma it was 32.2 µM; with NCI-H226 lung it was 35.4 µM; with SNB-19 CNS it was 32.7 µM; in the experiment on SNB-78 CNS it was 32.6 µM; with UO-31 renal, 34.1 µM.

In the case of `Nc1nc2n[nH]nc2c(=O)[nH]1`, the TGI was greater than 100 µM in the experiment on CCRF-CEM leukemia; greater than 100 µM with DLD-1 colon; 54.7 µM in the experiment on DMS 114 small cell lung; 18.2 µM with DMS 273 small cell lung; greater than 100 µM in the experiment with HCC-2998 colon; 85.3 µM in the experiment with HOP-18 NSCLC. The TGI with HOP-92 NSCLC is 38.5 µM; in the experiment with KM20L2 colon, greater than 100 µM; with LXFL 529 NSCLC, greater than 100 µM; in the experiment on NCI-H226 lung, 57.5 µM; with SNB-19 CNS, greater than 100 µM; in the experiment with SNB-78 CNS, greater than 100 µM. Moreover, the TGI is 10.5 µM in the experiment with T-47D breast and 29.3 µM with UO-31 renal.

Consider `CCCCN(Cc1ccccc1)C(=NC#N)N(Cc1ccccc1)Cc1ccccc1`, for which the TGI in the experiment on CCRF-CEM leukemia was greater than 100 µM; with DLD-1 colon, greater than 100 µM; with DMS 273 small cell lung, 43.6 µM; in the experiment with HCC-2998 colon, greater than 75.7 µM; in the experiment on HOP-92 NSCLC, 53.1 µM; with KM20L2 colon, 95.6 µM. The TGI was 34.3 µM with LXFL 529 NSCLC; 62.6 µM in the experiment on M19-MEL melanoma; 70.5 µM in the experiment with NCI-H226 lung; greater than 100 µM in the experiment with SNB-19 CNS; greater than 100 µM with SNB-78 CNS; greater than 100 µM in the experiment on T-47D breast. The compound also showed a TGI in the experiment with UO-31 renal greater than 52.4 µM.
